pIC50: −log10 of the molar value.
Assays:
Integrin alpha-4/beta-1 [1] = target: T1, Integrin alpha-4/beta-1 (Homo sapiens, UniProt P05556+P13612); experiment: Inhibition of VCAM-1 binding to integrin alpha4-beta1 in Jurkat cells at 10 uM; type: cell-based
Integrin alpha-4/beta-1 [2] = target: T1, Integrin alpha-4/beta-1; experiment: Inhibition of VCAM-1 binding to integrin alpha4-beta1 of Jurkat cells; type: cell-based
[3] = Maximal concentration determined at a dose 10 mg/kg administered intraperitoneally to mice; type: ADME, organism-based; set-up: dose 10 mg/kg, route intraperitoneal; conditions: mouse, in vivo, ip
[4] = Partition coefficient (logP); type: physicochemical; conditions: octanol/water
Integrin alpha-V/beta-3 = Integrin alpha-V/beta-3 (Homo sapiens, UniProt P05106+P06756); experiment: Inhibition of VCAM-1 binding to integrin alphaV-beta3 in Jurkat cells; type: cell-based
[5] = Inhibition of VCAM-1 binding to integrin alpha9/beta1 in Jurkat cells; type: cell-based, Homo sapiens
[6] = Half life (t1/2) determined at a dose 10 mg/kg administered intraperitoneally to mice; type: ADME, organism-based; set-up: dose 10 mg/kg, route intraperitoneal; conditions: mouse, in vivo, ip
[7] = Area under curve (AUC) determined at a dose 10 mg/kg administered intraperitoneally to mice; type: ADME, organism-based; set-up: dose 10 mg/kg, route intraperitoneal; conditions: mouse, in vivo, ip

T1 sequence (P05556 whole entry): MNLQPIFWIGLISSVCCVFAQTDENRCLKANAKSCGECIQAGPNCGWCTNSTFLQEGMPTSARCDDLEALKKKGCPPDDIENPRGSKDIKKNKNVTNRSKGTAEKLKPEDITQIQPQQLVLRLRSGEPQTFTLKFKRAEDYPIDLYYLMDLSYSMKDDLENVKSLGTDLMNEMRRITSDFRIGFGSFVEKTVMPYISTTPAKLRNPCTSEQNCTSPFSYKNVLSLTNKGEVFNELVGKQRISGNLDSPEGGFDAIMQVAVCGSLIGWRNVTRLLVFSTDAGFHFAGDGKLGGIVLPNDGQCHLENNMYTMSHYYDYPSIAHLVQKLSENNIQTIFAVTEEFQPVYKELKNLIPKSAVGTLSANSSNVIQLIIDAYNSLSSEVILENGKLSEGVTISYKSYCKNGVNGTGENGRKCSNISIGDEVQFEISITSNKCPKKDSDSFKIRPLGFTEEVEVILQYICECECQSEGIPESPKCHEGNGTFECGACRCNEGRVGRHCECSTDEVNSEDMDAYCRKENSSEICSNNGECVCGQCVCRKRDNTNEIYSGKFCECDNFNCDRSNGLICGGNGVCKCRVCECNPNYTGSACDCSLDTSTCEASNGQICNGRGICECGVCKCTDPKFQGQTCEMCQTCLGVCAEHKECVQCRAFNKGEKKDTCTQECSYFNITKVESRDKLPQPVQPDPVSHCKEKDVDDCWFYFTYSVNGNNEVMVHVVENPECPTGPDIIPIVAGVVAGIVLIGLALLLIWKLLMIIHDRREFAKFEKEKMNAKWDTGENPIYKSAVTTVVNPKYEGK
T1 sequence (P13612 whole entry): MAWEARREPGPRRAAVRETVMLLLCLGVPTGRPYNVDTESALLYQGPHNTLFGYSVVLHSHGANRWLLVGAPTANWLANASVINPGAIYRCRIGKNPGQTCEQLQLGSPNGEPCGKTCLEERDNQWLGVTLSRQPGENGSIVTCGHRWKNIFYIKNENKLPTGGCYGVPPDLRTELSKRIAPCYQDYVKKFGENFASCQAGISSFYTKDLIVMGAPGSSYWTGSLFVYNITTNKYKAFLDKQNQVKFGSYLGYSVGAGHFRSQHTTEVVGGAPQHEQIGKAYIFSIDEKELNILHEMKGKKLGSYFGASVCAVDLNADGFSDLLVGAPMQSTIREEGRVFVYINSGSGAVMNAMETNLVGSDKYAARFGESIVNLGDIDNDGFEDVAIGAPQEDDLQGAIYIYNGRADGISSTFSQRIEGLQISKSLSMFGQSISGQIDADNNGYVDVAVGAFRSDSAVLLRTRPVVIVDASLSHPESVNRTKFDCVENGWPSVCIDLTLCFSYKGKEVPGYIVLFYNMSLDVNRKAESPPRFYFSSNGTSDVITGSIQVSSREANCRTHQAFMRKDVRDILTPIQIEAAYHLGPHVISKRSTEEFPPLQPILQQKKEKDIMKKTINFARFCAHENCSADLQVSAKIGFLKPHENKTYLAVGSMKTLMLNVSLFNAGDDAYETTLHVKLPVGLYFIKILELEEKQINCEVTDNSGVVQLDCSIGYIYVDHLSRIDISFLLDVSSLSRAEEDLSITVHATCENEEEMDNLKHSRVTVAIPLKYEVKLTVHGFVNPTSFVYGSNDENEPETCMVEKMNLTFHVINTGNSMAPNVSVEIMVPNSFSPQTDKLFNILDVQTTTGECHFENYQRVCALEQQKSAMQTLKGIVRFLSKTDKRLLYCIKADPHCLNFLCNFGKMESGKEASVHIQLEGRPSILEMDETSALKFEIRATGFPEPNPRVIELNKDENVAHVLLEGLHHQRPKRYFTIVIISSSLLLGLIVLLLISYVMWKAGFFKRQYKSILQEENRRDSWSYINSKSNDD
Chain of Integrin alpha-V/beta-3 (P05106 27-788 limits assumed): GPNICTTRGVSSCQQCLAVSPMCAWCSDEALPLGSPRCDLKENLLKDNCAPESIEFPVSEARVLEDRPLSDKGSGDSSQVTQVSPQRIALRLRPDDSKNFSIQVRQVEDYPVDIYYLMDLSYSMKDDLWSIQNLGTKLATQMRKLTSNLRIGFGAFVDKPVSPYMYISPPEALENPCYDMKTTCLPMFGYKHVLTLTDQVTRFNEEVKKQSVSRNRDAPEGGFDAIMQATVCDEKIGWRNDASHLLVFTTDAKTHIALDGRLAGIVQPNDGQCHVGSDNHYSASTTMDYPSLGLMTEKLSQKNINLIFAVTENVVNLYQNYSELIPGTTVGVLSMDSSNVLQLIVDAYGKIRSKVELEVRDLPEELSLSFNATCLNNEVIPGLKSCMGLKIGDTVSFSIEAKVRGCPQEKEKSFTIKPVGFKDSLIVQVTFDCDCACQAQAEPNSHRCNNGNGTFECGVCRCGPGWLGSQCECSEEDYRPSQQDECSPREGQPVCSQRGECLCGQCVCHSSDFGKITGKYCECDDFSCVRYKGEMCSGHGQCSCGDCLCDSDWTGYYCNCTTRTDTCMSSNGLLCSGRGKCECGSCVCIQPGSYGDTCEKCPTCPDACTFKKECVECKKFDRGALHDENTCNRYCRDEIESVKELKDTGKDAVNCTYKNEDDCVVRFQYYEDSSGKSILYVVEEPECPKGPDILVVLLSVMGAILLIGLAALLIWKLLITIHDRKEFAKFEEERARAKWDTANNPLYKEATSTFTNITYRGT
Chain of Integrin alpha-V/beta-3 (P06756 31-889 limits assumed): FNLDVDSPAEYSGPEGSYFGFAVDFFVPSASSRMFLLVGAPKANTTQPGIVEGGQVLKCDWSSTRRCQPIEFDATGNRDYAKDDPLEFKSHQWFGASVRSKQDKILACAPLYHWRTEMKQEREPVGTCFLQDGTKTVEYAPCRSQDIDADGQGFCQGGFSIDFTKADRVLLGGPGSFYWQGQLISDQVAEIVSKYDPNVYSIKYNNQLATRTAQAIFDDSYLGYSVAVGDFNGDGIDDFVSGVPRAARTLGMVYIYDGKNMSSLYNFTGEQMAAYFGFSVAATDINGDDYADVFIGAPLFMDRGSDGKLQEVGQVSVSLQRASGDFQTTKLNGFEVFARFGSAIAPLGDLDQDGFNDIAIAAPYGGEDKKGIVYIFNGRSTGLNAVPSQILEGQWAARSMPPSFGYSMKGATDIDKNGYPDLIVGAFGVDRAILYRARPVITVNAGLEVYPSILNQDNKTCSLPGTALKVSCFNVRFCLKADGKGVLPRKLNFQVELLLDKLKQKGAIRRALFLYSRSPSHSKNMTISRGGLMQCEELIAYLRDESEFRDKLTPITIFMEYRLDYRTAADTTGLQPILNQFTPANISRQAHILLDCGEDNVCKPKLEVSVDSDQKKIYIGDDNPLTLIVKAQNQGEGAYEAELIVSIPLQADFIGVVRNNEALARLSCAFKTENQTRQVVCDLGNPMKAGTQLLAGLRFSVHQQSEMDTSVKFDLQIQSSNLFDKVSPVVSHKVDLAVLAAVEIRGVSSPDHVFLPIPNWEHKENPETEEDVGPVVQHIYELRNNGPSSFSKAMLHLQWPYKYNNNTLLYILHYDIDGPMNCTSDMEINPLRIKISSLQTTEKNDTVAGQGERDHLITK
Chain of Integrin alpha-V/beta-3 (P06756 891-1048 limits assumed): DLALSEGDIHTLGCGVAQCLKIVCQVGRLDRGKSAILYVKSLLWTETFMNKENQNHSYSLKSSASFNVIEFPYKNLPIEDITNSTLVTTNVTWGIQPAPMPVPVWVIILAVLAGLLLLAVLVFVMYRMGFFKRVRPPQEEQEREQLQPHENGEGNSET

Compound | inhibition (Integrin alpha-4/beta-1 [1]) [%] | pIC50 (Integrin alpha-4/beta-1 [2]) | also measured
Cc1ccccc1NC(=O)Nc1ccc(CC(=O)N[C@@H](CC(C)C)C(=O)N2CCCC(CC(=O)O)C2)cc1 (stereo partly drawn) | 55 | 5.14 | 
Cc1ccccc1NC(=O)Nc1ccc(CC(=O)N[C@@H](CC(C)C)C(=O)N2CCCCC2CC(=O)O)cc1 (stereo partly drawn) | 100 | 6.52 | Cmax [3]: 1440 ng/mL; logP [4]: 1.89; pIC50 (Integrin alpha-V/beta-3): < 3.70; pIC50 [5]: < 4.30; half-life [6]: 48 min; AUC [7]: 955 ng·h/mL
Cc1ccccc1NC(=O)Nc1ccc(CC(=O)N[C@@H](CC(C)C)C(=O)N2CCC(CC(=O)O)CC2)cc1 | 98 | 6.26 | 
Cc1ccccc1NC(=O)Nc1ccc(CC(=O)N[C@@H](CC(C)C)C(=O)N2CCCC(C(=O)O)C2)cc1 (stereo partly drawn) | 25 | < 5.00 | 
Cc1ccccc1NC(=O)Nc1ccc(CC(=O)N[C@@H](CC(C)C)C(=O)N2CCCC(CCC(=O)O)C2)cc1 (stereo partly drawn) | 77 | 5.17 | 
Cc1ccccc1NC(=O)Nc1ccc(CC(=O)N[C@@H](CC(C)C)C(=O)N2CCCCC2C(C(=O)O)c2ccccc2)cc1 (stereo partly drawn) | 99 | 5.30 | 
Cc1ccccc1NC(=O)Nc1ccc(CC(=O)N[C@@H](CC(C)C)C(=O)N2CCCCC2C(=O)O)cc1 (stereo partly drawn) | 49 | 5.00 | 
Cc1ccccc1NC(=O)Nc1ccc(CC(=O)N[C@@H](CC(C)C)C(=O)N2CCC(C(=O)O)CC2)cc1 | 96 | 5.33 | 
Cc1ccccc1NC(=O)Nc1ccc(CC(=O)N[C@@H](CC(C)C)C(=O)N[C@H](C)CC(=O)O)cc1 |  |  | logP [4]: 1.72

Reference: ChEMBL document CHEMBL1133854, “Discovery and evaluation of piperidinyl carboxylic acid derivatives as potent alpha(4)beta(1) integrin antagonists” (Bioorg Med Chem Lett, 2001)
